{
  "source": "patent US7892575B2",
  "about": "“Orodispersible pharmaceutical composition for oromucosal or sublingual administration of agomelatine” (Les Laboratoires Servier, priority 2005, dated 2011)",
  "origin": "cited, not measured here",
  "conditions": "humans",
  "data": [
    {"smiles": "COc1ccc2cccc(CCNC(C)=O)c2c1", "note": "[agomelatine, N-[2-(7-methoxy-1-naphthyl)ethyl]acetamide]", "values": [
      {"measurement": "bioavailability by the oral route in relation to the parenteral route", "value": "very low"}
    ]}
  ]
}
